Key:
EGFR^L858R/T790M/C797S = EGFR^L858R/T790M/C797S (Homo sapiens, UniProt P00533, C797S/L858R/T790M); assay: EGFR inhibitory activity assay (TK-substrate-biotin/ATP, 665/615 ratio); type: biochemical; conditions: kinase inhibition
Procedure: EGFR Inhibitory Activity Assay
(1) A compound stock solution was prepared and diluted 3× to obtain a compound dilution; 10 nL of the compound dilution was transferred to a 384-well plate (784075, Greiner) by Echo 550;
(2) The plate was sealed, and centrifuged at 1,000 g for 1 min;
(4) 5 μl of the 2×EGFR protein working solution was added to the 384-well plate from step (2), centrifuged at 1,000 g for 30 s, and allowed to stand at room temperature (mixed thoroughly) for 10 min;
(6) 5 µL of the TK-substrate-biotin and ATP (the mixture prepared in step (5)) was added to the 384-well plate from step (4) to initiate the reaction;
(7) The mixture was centrifuged at 1,000 g for 30 s; the plate was sealed, and allowed to stand (and reacted) at room temperature for 40 min;
(8) 4×Sa-XL 665 and TK-antibody-Cryptate were prepared with detection buffer;
(9) 5 µL of the Sa-XL 665 and 5 µL of the TK-antibody-Cryptate were added successively to the 384-well plate from step (7);
(10) The mixture was centrifuged at 1,000 g for 30 s, and allowed to stand (reacted) at room temperature for 1 h;
(11) The fluorescence values were read at 615 nm and 665 nm by enzyme labeling instrument (PerkinElmer, 74785).
The ratio (665/615) of each well was calculated.
Formula of inhibition rate (%): […]
Ratiocmpd: Ratio (665/615) value of assay compound.
Ratiopositive: Average ratio (665/615) value of positive control.
Ratiovehicle: Average ratio (665/615) value of negative control.
(§1) The nonlinear regression curve (dose response-variable slope) between the value of inhibition rate (%) and the logarithm of compound concentration was fitted with graphpad prism 8.0, the effect dose curve of compound was drawn, and the IC50 value was calculated.

[1] = molecular target: Ba/F3(EGFR^L858R/T790M/C797S) cells (Homo sapiens, UniProt P00533, T790M/C797S/L858R, cells depend on it); assay: Assay of activity on Ba/F3 cells (CTG, 72 h); type: cell-based; conditions: read-out: IC50 (nM) Ba/F3 (EGFR^L858R/T790M/C797S)
Sequence of Ba/F3(EGFR^L858R/T790M/C797S) cells (P00533 whole entry T790M/C797S/L858R): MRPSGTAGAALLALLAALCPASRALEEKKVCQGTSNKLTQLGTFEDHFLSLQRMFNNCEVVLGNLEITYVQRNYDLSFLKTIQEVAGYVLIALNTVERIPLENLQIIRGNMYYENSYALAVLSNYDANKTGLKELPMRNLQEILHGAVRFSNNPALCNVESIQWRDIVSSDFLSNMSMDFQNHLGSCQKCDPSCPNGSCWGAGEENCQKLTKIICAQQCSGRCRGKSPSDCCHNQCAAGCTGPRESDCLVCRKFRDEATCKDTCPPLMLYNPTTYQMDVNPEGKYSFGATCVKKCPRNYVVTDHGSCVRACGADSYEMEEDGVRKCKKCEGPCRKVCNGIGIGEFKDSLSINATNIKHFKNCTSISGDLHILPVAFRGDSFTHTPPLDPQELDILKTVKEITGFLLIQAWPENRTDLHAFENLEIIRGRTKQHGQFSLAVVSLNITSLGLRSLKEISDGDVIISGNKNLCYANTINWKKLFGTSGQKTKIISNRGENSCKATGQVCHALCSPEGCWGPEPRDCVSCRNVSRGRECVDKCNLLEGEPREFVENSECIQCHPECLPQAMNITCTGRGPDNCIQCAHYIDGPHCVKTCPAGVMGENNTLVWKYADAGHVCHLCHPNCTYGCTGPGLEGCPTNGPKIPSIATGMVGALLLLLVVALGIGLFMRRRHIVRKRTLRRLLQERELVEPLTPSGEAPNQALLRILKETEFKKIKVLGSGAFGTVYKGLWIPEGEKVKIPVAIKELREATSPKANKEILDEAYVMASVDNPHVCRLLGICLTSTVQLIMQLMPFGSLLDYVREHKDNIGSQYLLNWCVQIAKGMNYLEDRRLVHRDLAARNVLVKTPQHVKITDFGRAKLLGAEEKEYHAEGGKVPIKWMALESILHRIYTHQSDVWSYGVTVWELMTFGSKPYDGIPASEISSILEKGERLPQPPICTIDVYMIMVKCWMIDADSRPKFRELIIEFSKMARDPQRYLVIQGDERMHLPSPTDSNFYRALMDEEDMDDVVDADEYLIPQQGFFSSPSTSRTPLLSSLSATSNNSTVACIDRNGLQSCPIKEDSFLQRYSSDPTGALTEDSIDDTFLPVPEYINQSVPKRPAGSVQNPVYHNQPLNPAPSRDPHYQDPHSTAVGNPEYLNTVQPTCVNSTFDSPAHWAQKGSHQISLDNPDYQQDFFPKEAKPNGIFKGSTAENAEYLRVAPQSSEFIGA
Summary of the method: (§2)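 Ba/F3 cells dependent on each EGFR triple mutant were exposed to 3-fold compound dilutions for 72 h at 37° C, 5% CO2, with CellTiter-Glo luminescence as the read-out.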

Ba/F3(EML4-ALK) cells = molecular target: T1, Ba/F3(EML4-ALK) cells (Homo sapiens, UniProt Q9UM73); assay: Assay of activity on Ba/F3(EML4-ALK) cells (CTG, 72 h); type: cell-based; conditions: read-out: IC50 (nM) Ba/F3(EML4-ALK)
T1 construct: fused on or other part: Q9HC35 (Echinoderm microtubule-associated protein-like 4)
Procedure: Assay of activity on Ba/F3(EML4-ALK) cells
(1) Ba/F3(EML4-ALK) cells were cultured according to the requirements of ATCC, incubated in an incubator at 37° C. and 5% CO2, and analyzed by index; cells with viability of >90% can be used in the assay, and cells were seeded in a 384-well plate (PerkinElmer, 6007680) with 700 cells/well, 30 μl/well.
(2) A compound stock solution was prepared, and diluted 3× to obtain a compound dilution; 30 nL of the serial dilution was added to a 384-well plate (784075, Greiner) by Echo 550, and cells were incubated in an incubator at 37° C. and 5% CO2 for 72 h.
(3) 30 μL of CTG was added to each well, and the 384-well plate was shaken on a Plate shaker (QILINBEIER, QB-9002); the 384-well plate was incubated in the dark at 37° C. and 5% CO2 for 30 min, and the chemiluminescence value was read by Envision (PerkinElmer, EnVision 2104).
The percent inhibition rate (% inhibition) was calculated by the formula below
LUMcmpd: Luminescence value of assay compound.
LUMpositive: Average LUM value of positive drug at a concentration of 10 μM.
LUM^vehicle: Average LUM value of negative control group without drug treatment.
as §1
Y=Bottom+(Top−Bottom)/(1+10^((LogIC50−X)*HillSlope))
X-axis: logarithm of compound concentration; Y axis: inhibition rate (% inhibition).

[2] = molecular target: Ba/F3(EGFR^Del19/T790M/C797S) cells (Homo sapiens, UniProt P00533, DEL746-750/T790M/C797S, cells depend on it); assay: Assay of activity on Ba/F3 cells (CTG, 72 h); type: cell-based; conditions: read-out: IC50 (nM) Ba/F3 (EGFR^Del19/T790M/C797S)
Sequence of Ba/F3(EGFR^Del19/T790M/C797S) cells (P00533 with tags, fused parts or gaps DEL746-750/T790M/C797S): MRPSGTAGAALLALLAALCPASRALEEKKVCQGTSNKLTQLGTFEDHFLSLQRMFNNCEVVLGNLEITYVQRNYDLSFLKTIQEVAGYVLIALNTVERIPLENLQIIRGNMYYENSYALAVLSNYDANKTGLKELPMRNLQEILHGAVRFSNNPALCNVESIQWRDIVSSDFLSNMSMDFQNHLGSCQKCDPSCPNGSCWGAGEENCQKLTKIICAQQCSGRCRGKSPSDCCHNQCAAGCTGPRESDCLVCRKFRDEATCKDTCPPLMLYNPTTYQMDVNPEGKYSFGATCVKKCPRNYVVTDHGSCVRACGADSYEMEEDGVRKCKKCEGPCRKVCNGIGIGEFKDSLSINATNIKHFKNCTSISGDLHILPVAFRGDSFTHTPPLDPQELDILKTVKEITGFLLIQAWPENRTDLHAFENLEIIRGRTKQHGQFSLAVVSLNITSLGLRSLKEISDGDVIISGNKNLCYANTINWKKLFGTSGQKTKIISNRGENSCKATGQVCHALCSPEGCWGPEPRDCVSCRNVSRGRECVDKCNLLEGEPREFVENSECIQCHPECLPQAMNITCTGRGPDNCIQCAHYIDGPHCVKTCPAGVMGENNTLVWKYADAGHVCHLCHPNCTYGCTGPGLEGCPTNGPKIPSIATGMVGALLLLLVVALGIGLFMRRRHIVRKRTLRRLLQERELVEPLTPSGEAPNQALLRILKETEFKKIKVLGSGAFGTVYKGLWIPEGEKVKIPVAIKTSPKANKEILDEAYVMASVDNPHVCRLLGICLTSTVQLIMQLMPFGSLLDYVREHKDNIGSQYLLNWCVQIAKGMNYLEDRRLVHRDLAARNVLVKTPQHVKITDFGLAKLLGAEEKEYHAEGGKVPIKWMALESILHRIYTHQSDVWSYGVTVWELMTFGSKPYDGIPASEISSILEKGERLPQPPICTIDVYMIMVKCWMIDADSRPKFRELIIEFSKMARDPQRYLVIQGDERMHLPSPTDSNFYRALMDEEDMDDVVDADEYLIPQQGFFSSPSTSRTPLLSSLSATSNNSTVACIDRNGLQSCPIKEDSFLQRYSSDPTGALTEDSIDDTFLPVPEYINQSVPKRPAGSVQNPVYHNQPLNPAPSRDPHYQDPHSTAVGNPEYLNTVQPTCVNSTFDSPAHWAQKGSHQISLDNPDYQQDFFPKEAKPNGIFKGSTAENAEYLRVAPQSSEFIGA
Summary of the method: as §2

Sequence of EGFR^L858R/T790M/C797S (P00533 25-1210 T790M/C797S/L858R): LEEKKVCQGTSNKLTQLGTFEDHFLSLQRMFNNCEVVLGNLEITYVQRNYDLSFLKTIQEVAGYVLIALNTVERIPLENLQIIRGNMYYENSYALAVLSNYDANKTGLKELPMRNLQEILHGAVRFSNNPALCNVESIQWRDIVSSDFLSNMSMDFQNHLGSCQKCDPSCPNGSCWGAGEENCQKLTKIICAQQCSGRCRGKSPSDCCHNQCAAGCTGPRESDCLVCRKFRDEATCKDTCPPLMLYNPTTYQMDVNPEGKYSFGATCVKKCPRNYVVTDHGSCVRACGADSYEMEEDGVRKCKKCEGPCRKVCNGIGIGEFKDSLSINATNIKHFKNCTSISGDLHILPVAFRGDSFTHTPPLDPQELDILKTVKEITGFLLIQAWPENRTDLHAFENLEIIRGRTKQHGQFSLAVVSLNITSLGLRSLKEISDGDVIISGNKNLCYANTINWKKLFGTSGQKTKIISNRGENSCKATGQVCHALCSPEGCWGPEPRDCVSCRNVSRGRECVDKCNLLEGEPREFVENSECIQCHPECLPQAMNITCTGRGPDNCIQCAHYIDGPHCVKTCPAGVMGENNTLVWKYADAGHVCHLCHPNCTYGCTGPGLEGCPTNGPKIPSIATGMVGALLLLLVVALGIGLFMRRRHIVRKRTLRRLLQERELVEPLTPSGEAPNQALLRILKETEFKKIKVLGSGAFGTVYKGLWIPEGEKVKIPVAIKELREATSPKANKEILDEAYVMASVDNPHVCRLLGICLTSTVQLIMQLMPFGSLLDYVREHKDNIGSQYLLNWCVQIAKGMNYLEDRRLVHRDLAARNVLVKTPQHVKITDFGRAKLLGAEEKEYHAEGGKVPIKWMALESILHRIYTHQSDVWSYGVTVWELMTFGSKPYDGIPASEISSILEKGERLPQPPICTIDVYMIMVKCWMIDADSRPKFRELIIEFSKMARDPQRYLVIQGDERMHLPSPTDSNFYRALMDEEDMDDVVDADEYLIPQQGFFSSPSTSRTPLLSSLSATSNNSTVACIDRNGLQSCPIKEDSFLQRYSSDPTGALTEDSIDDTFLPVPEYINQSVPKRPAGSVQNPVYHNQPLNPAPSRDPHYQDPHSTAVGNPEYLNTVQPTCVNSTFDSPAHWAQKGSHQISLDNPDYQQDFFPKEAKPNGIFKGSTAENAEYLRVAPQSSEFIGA

Structure (SMILES) | IC50 (EGFR^L858R/T790M/C797S) [nM] | GI50 [1] [nM] | GI50 (Ba/F3(EML4-ALK) cells) [nM] | GI50 [2] [nM]
COc1cc(N2CCC(N3CCN(C(=O)CN4CCN(C(=O)COc5cccc6c5C(=O)N(C5CCC(=O)NC5=O)C6=O)CC4)CC3)CC2)ccc1Nc1ncc(Cl)c(Nc2ccccc2P(C)(C)=O)n1 (stereo not drawn) [Compound C99, 4-(2-(4-(2-(4-(1-(4-((5-chloro-4-((2-(dimethylphosphoryl)phenyl)amino)pyrimidin-2-yl)amino)-3-methoxyphenyl)piperidin-4-yl)piperazin-1-yl)-2-oxoethyl)piperazin-1-yl)-2-oxoethoxy)-2-(2,6-dioxopiperidin-3-yl)isoindoline-1,3-dione] | 1 to 100 | > 300 | – | –
COc1cc(N2CCC(N3CCN(C(=O)COc4cccc5c4C(=O)N(C4CCC(=O)NC4=O)C5=O)CC3)CC2)ccc1Nc1ncc(Cl)c(Nc2ccccc2P(C)(C)=O)n1 (stereo not drawn) [Compound C101, 4-(2-(4-(1-(4-((5-chloro-4-((2-(dimethylphosphoryl)phenyl)amino)pyrimidin-2-yl)amino)-3-methoxyphenyl)piperidin-4-yl)piperazin-1-yl)-2-oxoethoxy)-2-(2,6-dioxopiperidin-3-yl)isoindoline-1,3-dione] | 1 to 100 | > 300 | – | –
COc1cc(N2CCC(N3CCN(C(=O)C4(C(=O)Oc5cccc6c5C(=O)N(C5CCC(=O)NC5=O)C6=O)CC4)CC3)CC2)ccc1Nc1ncc(Cl)c(Nc2ccccc2P(C)(C)=O)n1 (stereo not drawn) [Compound C104, 1-(4-(1-(4-((5-chloro-4-((2-(dimethylphosphoryl)phenyl)amino)pyrimidin-2-yl)amino)-3-methoxyphenyl)piperidin-4-yl)piperazine-1-carbonyl)cyclopropane-1-carboxylate 2-(2,6-dioxopiperidin-3-yl)-1,3-dioxoisoindolin-4-yl ester] | 1 to 100 | > 300 | – | –
COc1cc(N2CCC(N3CCN(CC(=O)N4CC(F)(F)C[C@H]4C(=O)Nc4cccc5c4CN(C4CCC(=O)NC4=O)C5=O)CC3)CC2)ccc1Nc1ncc(Cl)c(Nc2ccccc2P(C)(C)=O)n1 (stereo partly drawn) [Compound C110, (2S)-1-(2-(4-(1-(4-((5-chloro-4-((2-(dimethylphosphoryl)phenyl)amino)pyrimidin-2-yl)amino)-3-methoxyphenyl)piperidin-4-yl)piperazin-1-yl)acetyl)-N-(2-(2,6-dioxopiperidin-3-yl)-1-oxoisoindolin-4-yl)-4,4-difluoropyrrolidine-2-carboxamide] | 1 to 100 | > 300 | – | –
COc1cc(N2CCC(N3CCN(CCCCCC#Cc4cccc5c4C(=O)N(C4CCC(=O)NC4=O)C5=O)CC3)CC2)ccc1Nc1ncc(Cl)c(Nc2ccccc2P(C)(C)=O)n1 (stereo not drawn) [Compound C148, 4-(7-(4-(1-(4-((5-chloro-4-((2-(dimethylphosphoryl)phenyl)amino)pyrimidin-2-yl)amino)-3-methoxyphenyl)piperidin-4-yl)piperazin-1-yl)hept-1-yn-1-yl)-2-(2,6-dioxopiperidin-3-yl)isoindoline-1,3-dione] | 1 to 100 | > 300 | – | –
COc1cc(N2CCC(N3CCN(CCCCCC#Cc4ccc5c(c4)CN(C4CCC(=O)NC4=O)C5=O)CC3)CC2)c(C)cc1Nc1ncc(Br)c(Nc2ccc3nccnc3c2P(C)(C)=O)n1 (stereo not drawn) [Compound C163, 3-(5-(7-(4-(1-(4-((5-bromo-4-((5-(dimethylphosphoryl)quinoxalin-6-yl)amino)pyrimidin-2-yl)amino)-5-methoxy-2-methylphenyl)piperidin-4-yl)piperazin-1-yl)hept-1-yn-1-yl)-1-oxoisoindolin-2-yl)piperidine-2,6-dione] | – | – | 1 to 100 | 1 to 100
COc1cc(N2CCC3(CCN(CCCCCCC#Cc4cccc5c4CN(C4CCC(=O)NC4=O)C5=O)CC3)CC2)c(C)cc1Nc1ncc(Br)c(Nc2ccc3nccnc3c2P(C)(C)=O)n1 (stereo not drawn) [Compound C172, 3-(4-(8-(9-(4-((5-bromo-4-((5-(dimethylphosphoryl)quinoxalin-6-yl)amino)pyrimidin-2-yl)amino)-5-methoxy-2-methylphenyl)-3,9-diazaspiro[5.5]undecan-3-yl)oct-1-yn-1-yl)-1-oxoisoindolin-2-yl)piperidine-2,6-dione] | – | – | 1 to 100 | 1 to 100
COc1cc(N2CCC(N3CCN(CCCCOCC#Cc4cccc5c4CN(C4CCC(=O)NC4=O)C5=O)CC3)CC2)ccc1Nc1ncc(Cl)c(Nc2ccccc2P(C)(C)=O)n1 (stereo not drawn) [Compound C182, 3-(4-(3-(4-(4-(1-(4-((5-chloro-4-((2-(dimethylphosphoryl)phenyl)amino)pyrimidin-2-yl)amino)-3-methoxyphenyl)piperidin-4-yl)piperazin-1-yl)butoxy)prop-1-yn-1-yl)-1-oxoisoindolin-2-yl)piperidine-2,6-dione] | – | – | 1 to 100 | 1 to 100

The next lines start with the values.

IC50 (EGFR^L858R/T790M/C797S) [nM] | GI50 [1] [nM] | GI50 (Ba/F3(EML4-ALK) cells) [nM] | GI50 [2] [nM] | Structure (SMILES)
– | – | 1 to 100 | 1 to 100 | COc1cc(N2CCC3(CCN(CCCCCCCC#Cc4cccc5c4CN(C4CCC(=O)NC4=O)C5=O)CC3)CC2)c(C)cc1Nc1ncc(Br)c(Nc2ccc3nccnc3c2P(C)(C)=O)n1 (stereo not drawn) [Compound C173, 3-(4-(9-(9-(4-((5-bromo-4-((5-(dimethylphosphoryl)quinoxalin-6-yl)amino)pyrimidin-2-yl)amino)-5-methoxy-2-methylphenyl)-3,9-diazaspiro[5.5]undecan-3-yl)non-1-yn-1-yl)-1-oxoisoindolin-2-yl)piperidine-2,6-dione]
– | – | 1 to 100 | 1 to 100 | COc1cc(N2CCC(N3CCN(CCCOCC#Cc4cccc5c4CN(C4CCC(=O)NC4=O)C5=O)CC3)CC2)ccc1Nc1ncc(Cl)c(Nc2ccccc2P(C)(C)=O)n1 (stereo not drawn) [Compound C181, 3-(4-(3-(3-(4-(1-(4-((5-chloro-4-((2-(dimethylphosphoryl)phenyl)amino)pyrimidin-2-yl)amino)-3-methoxyphenyl)piperidin-4-yl)piperazin-1-yl)propoxy)prop-1-yn-1-yl)-1-oxoisoindolin-2-yl)piperidine-2,6-dione]
– | – | 1 to 100 | 1 to 100 | COc1cc(N2CCC(N3CCN(CCOCC#Cc4cc(F)cc5c4CN(C4CCC(=O)NC4=O)C5=O)CC3)CC2)ccc1Nc1ncc(Cl)c(Nc2ccccc2P(C)(C)=O)n1 (stereo not drawn) [Compound C184, 3-(4-(3-(2-(4-(1-(4-((5-chloro-4-((2-(dimethylphosphoryl)phenyl)amino)pyrimidin-2-yl)amino)-3-methoxyphenyl)piperidin-4-yl)piperazin-1-yl)ethoxy)prop-1-yn-1-yl)-6-fluoro-1-oxoisoindolin-2-yl)piperidine-2,6-dione]
– | – | 1 to 100 | 1 to 100 | COc1cc(N2CCC(N3CCN(CCCCC#Cc4cccc5c4CN(C4CCC(=O)NC4=O)C5=O)CC3)CC2)c(C)cc1Nc1ncc(Br)c(Nc2ccc3nccnc3c2P(C)(C)=O)n1 (stereo not drawn) [Compound C186, 3-(4-(6-(4-(1-(4-((5-bromo-4-((5-(dimethylphosphoryl)quinoxalin-6-yl)amino)pyrimidin-2-yl)amino)-5-methoxy-2-methylphenyl)piperidin-4-yl)piperazin-1-yl)hex-1-yn-1-yl)-1-oxoisoindolin-2-yl)piperidine-2,6-dione]

— patent US20220306659A1, “COMPOUND INHIBITING AND INDUCING DEGRADATION OF EGFR AND ALK” (BEIJING TIDE PHARMACEUTICAL CO., LTD., priority 2019, published 2022)
